How the values were obtained:
[1] = biological target: Melatonin receptor (Gallus gallus) (UniProt P49288+P51050+P49285); assay: Relative binding affinity to chicken retinal membranes compared to 2-[125I]iodomelatonin.; settings: Retina; Membrane
[2] = biological target: Melatonin receptor (Gallus gallus, UniProt P49288+P51050+P49285); assay: Binding affinity to compete for 2-[125I]iodomelatonin binding to chicken retinal membranes; set-up: species or system Retina, Membrane
[3] = biological target: Melatonin receptor (Oryctolagus cuniculus); assay: Inhibition of […] calcium dependent dopamine release from the rabbit retina.
[4] = organism: Oryctolagus cuniculus; assay: Tested for in vitro inhibition of calcium-dependent release of [3H]dopamine from rabbit retina; NE- No effect; format: functional

Compound	Relative affinity [1]	Ki [2]	IC50 [3]	IC50 [4]
CCC(=O)NCCc1ccccc1OC	1380	789 nM		
CCC(=O)NCCc1c[nH]c2ccc(OC)cc12	0.47	0.27 nM		
COc1cccc2c1CC(NC(=O)C1CC1)CC2 (stereo unspecified)	247	141 nM	2.5 nM	
COc1cccc2c1CC(NC(=O)c1ccccc1)CC2 (stereo unspecified)	40500	23100 nM	22 nM	
CCCC(=O)NCCc1ccccc1OC	1310	748 nM		
CCCC(=O)NC1CCc2ccccc2C1 (stereo unspecified)	78	44.4 nM	1 nM	
COc1cc2c(CCNC(C)=O)c(C)[nH]c2c(Cl)c1Cl	0.4	0.23 nM	0.01 nM	
COc1ccccc1CCNC(C)=O	737	420 nM	3 nM	
CCCC(=O)NC1CCc2cccc(OC)c2C1 (stereo unspecified)	6.3	3.6 nM	1.2 nM	
COc1cccc(CCNC(C)=O)c1	1020	581 nM		
CC(=O)NC1CCc2ccccc2C1 (stereo unspecified)	1170	665 nM	52 nM	
COc1cccc2c1CC(NC(=O)Cc1ccccc1)CC2 (stereo unspecified)				Not Active
COc1ccc2c(c1)CCC(N)C2.Cl (stereo unspecified)		> 100000 nM		

The next lines start with the values.

Relative affinity [1]	Ki [2]	IC50 [3]	IC50 [4]	Compound
3420	1950 nM	6.5 nM		COc1cccc2c1CCC(NC(C)=O)C2 (stereo unspecified)
212	121 nM	1.6 nM		COc1ccc2c(c1)CC(NC(C)=O)CC2 (stereo unspecified)
1.28	0.73 nM			CCCC(=O)NCCc1c[nH]c2ccc(OC)cc12
547	312 nM	7.9 nM		COc1cccc2c1CC(NC(=O)C(C)C)CC2 (stereo unspecified)
254	145 nM	8.1 nM		CCC(=O)NC1CCc2ccccc2C1 (stereo unspecified)
167	95.1 nM	1.3 nM		O=C(CCl)NC1CCc2ccccc2C1 (stereo unspecified)
6.6	3.75 nM	0.063 nM		COc1cccc2c1CC(NC(=O)CCl)CC2 (stereo unspecified)

Source: ChEMBL document CHEMBL1126832, “2-Amido-8-methoxytetralins: a series of nonindolic melatonin-like agents” (J Med Chem, 1993)
